Data set [1] concerns tinnitus.
For the next data set, the system named is GABA. Particulars: cited from earlier work.
In data set [2] the test system is tinnitus. To be noted: 32 patients; 200 mg 3 times daily for 30 days; cited from earlier work.
The test system of data set [3] is tinnitus. Particulars: 300 mg mex per day orally for one or two weeks; cited from earlier work.
The conditions of data set [4]: cited from earlier work.
Data set [5] concerns allodynia from rat nerve root ligation. To be noted: cited from earlier work.
In the next data set the test system is allodynia. Description: Different allodynia model, i.v. injected mex enantiomers (Nordmark and Schött, unpublished observations). It is filed as in vivo. Particulars: 25 mg/kg i.v.
The subject of data set [6] is tinnitus. Particulars: no statistically significant difference to placebo (35%); cited from earlier work.
Another data set deals with inferior colliculus. Particulars: activity believed to be representative of tinnitus; cited from earlier work.
Data set [7] relates to tinnitus. Particulars: difference to placebo (30%) not significant; cited from earlier work.
The subject of data set [8] is tinnitus. To be noted: tocainide infusion; placebo infusion 5%; cited from earlier work.

“Also recorded” adds a separate entry of the source. Like-named read-outs stand apart in the source and are kept apart here.

As for “1-(2,6-dimethylphenoxy)-propanamine [mexiletine]”, the “tinnitus intensity reduction (VAS)” value in the data set on tinnitus [1] (Case 1, 500 mg mexiletine infused over 120 min, after 118 min) was 95%. For the same molecule, in the data set with tinnitus [1] (Case 2, 500 mg mexiletine), the “time after which tinnitus returned to normal” value came to 1 h. Further, in the data set with tinnitus [1] (Case 2, 500 mg mexiletine, shortly before the infusion stopped), the “level to which tinnitus was reduced” value is given as 60%. Moreover, the “time after which tinnitus returned to base level” value in the data set with tinnitus [1] (Case 2, 550 mg mexiletine over 90 min) turned out to be 100 min. The “tinnitus (VAS)” value in the data set on tinnitus [1] (Case 2, 550 mg mexiletine over 90 min, after 60 min) is listed as “completely vanished”. Further, the “increase in tinnitus intensity” value in the data set on tinnitus [1] (Case 2, 550 mg mexiletine over 90 min, after 214 min) is listed as “about 40%”. Further, the “reduction in tinnitus intensity” value in the data set on tinnitus [1] (Case 3, mexiletine) is reported as “small reductions; also recorded: moderate”. For the same molecule, the side effects entry in the data set with tinnitus [1] (human, in vivo) is reported as “no side effects”. For the same molecule, the “effect on GABA” value in the data set with GABA is reported as “stimulating effect”. The “effect on tinnitus compared with placebo” value in the data set on tinnitus [2] is “not superior to placebo”. For the same molecule, in the data set with tinnitus [3], the “patients showing no effect” value was 65% and the “subjects showing an effect above 50%” value was 14.6%. Besides, in [4] (after administration every 8 hours), the “difference between peak and trough” value is “more than 30%”. Also, the half-life result in data set [4] (human, in vivo) was “about 8 hours”.

Turning to `Cc1cccc(C)c1OC[C@@H](C)N` [(R−)-mex], the “pain relief (allodynia) compared between the mex enantiomers” value in data set [5] is listed as “considerably greater”.

Take `Cc1cccc(C)c1OC[C@H](C)N` [(S+)-mex]: in the data set with allodynia, the side effects entry is listed as “so severe that pain measurements were not possible”.

Take `NC(=O)N1c2ccccc2C=Cc2ccccc21` [carbamazepine]: the “positive results for the drug” value in the data set on tinnitus [6] is reported as 45%.

In the case of `CCN(CC)CC(=O)Nc1c(C)cccc1C` [lidocaine], the side effects entry was “no side effects” in the data set on tinnitus [1] (Case 1, 100 mg lidocaine i.v.) and “no side effects” in the data set on tinnitus [1] (Case 3, lidocaine). Further, the “tinnitus intensity reduction (VAS)” value with tinnitus [1] (Case 1, 100 mg lidocaine i.v. over 5 min, 70 min after the start) was 96%. Also, the “time after which tinnitus returned to the initial level” value in the data set on tinnitus [1] (Case 2, lidocaine i.v.) is “about 2 min”. In addition, the “tinnitus (VAS)” value with tinnitus [1] (Case 2, lidocaine i.v., 30 s after injection) is listed as “no tinnitus”; in the data set with tinnitus [1] (Case 2, lidocaine i.v., less than one min after the start of the injection), “vanished completely”. In the data set on tinnitus [1] (Case 2, lidocaine i.v., at 30 min), the “tinnitus increase above the base level” value is given as 46%. Moreover, the “reduction in tinnitus intensity” value in the data set with tinnitus [1] (Case 3, lidocaine) was “small reductions; also recorded: moderate”. The “increased spontaneous activity in the inferior colliculus” value in the data set with inferior colliculus is “abolished”. Besides, the “effect on GABA” value in the data set on GABA is “stimulating effect”.

Take `CNCCC=C1c2ccccc2CCc2ccccc21` [nortriptyline]: in the data set on tinnitus [7], the “reduction of tinnitus sensation” value is recorded as 43%.

Regarding `Cc1cccc(C)c1NC(=O)C(C)N` (stereo not drawn) [tocainide], the “reduction in tinnitus intensity” value in the data set on tinnitus [8] is reported as 50%. In addition, the “effect on GABA” value in the data set on GABA is on record as “stimulating effect”.

The record behind these values is patent US20040116535A1, “Use” (priority 2001, published 2004).
